Data published in patent US6437138B1, “3-pyridyloxymethyl heterocyclic ether compounds useful in controlling chemical synaptic transmission” (priority 1996, dated 2002).
Counter-ions that a name gives are not always drawn.

What was measured:
[1] = target: neuronal nicotinic cholinergic channels in IMR-32 cells (Homo sapiens, UniProt P30926+P32297); test: 86Rb+ efflux in IMR-32 cells (activation, or inhibition of efflux elicited by (S)-nicotine); type: cell-based; settings: for inhibition at 1 µM / inhibition at 10 µM / Emax: IMR-32; for inhibition at 10 µM: single dose 10 μM; for Emax: read-out: IMR-32 maximal response
Source text: For the purpose of directly evaluating the ability of test compounds to functionally activate or inhibit certain subtypes of neuronal nicotinic cholinergic channels, an assay to determine ^86Rb^+Efflux in IMR-32 cells was employed (Protocol B below).
B. Protocols for the Determination of Functional Effects of Cholinerzic Channel Receptor Ligands on Synaptic Transmission
Cells of the IMR-32 human neuroblastoma clonal cell line (ATCC, Rockville, Md.) were maintained in a log phase of growth according to established procedures (Lukas, 1993). Experimental cells were seeded at a density of 500,000 cells/ml into a 24-well tissue culture dish. Plated cells were allowed to proliferate for at least 48 hours before loading with 2 μCi/ml of ^86Rb^+ (35 Ci/mmol) overnight at 37° C. The ^86Rb^+ efflux assays were performed according to previously published protocols (Lukas, R. J., J. Pharmacol. Exp. Ther., 265: 294-302, 1993) except serum-free Dulbecco's Modified Eagle's Medium was used during the ^86Rb^+ loading, rinsing, and agonist-induced efflux steps.
EC50 data and maximal responses (reported as percent relative to the response elicited by 100 μM (S)-nicotine) are shown for selected compounds of the invention. The inhibition data (given for a larger number of compounds) reflect inhibition of the efflux elicited by 100 μM (S)-nicotine for either a single dose (% inhibition at 1 μM or at 10 μM) or over a range of doses (IC50 of inhibition). […] This finding is in agreement with the results of others who have linked dopamine release, which is dependent upon the ion flux in synaptic transmission, to binding at nicotinic receptors (cf., for example, Lippiello and Caldwell, U.S. Pat. No. 5,242,935, issued Sep. 7, 1993; Caldwell and Lippiello, U.S. Pat. No. 5,248,690, issued Sep. 28, 1993; and Wonnacott et al., Prog. Brain Res., 79: 157-163 (1989)).

[2] = inhibition of the efflux elicited by 100 μM (S)-nicotine, single dose 1 μM
[3] = inhibition of the efflux elicited by 100 μM (S)-nicotine
[4] = 86Rb+ efflux, percent relative to the response elicited by 100 μM (S)-nicotine

SMILES	inhibition at 1 µM [1, 2] [%]	melting point	Emax [1, 4] [%]	further results
CCCCC#Cc1cncc(OC[C@@H]2CCCN2C)c1 [Example 4, 5-Hexynyl-3-(1-methyl-2-(S)-pyrrolidinylmethoxy)pyridine Dihydrochloride]	55	–	–	–
CN1CCC[C@H]1COc1cncc(C=Cc2ccncc2)c1 [Example 13, 5-(2-(4-Pyridinyl)ethenylyl)-3-((1-methyl-2-(S)-pyrrolidinylmethoxy)pyridine Triihydrochloride]	50	–	–	–
CN1CCC[C@H]1COc1cncc(C#CCCCC#N)c1 [Example 14, (5-(5-Cyano-1-pentynyl-3-(1-methyl-2-(S)-pyrrolidinylmethoxy)pyridine Dihydrochloride]	50	–	–	–
COC(=O)CCc1cncc(OC[C@@H]2CCCN2C)c1 [Example 15, 5-(2-(Methoxycarbonyl)ethyl)-3-(1-methyl-2-(S)-pyrrolidinylmethoxy)pyridine Dihydrochloride]	16	–	–	inhibition at 10 µM [1, 3]: 83%
COC(=O)C=Cc1cncc(OC[C@@H]2CCCN2C)c1 [Example 16, 5-(2-(Methoxycarbonyl)ethenyl-3-(1-methyl-2-(S)-pyrrolidinylmethoxy)pyridine Dihydrochloride]	6	–	–	–
CN1CCC[C@H]1COc1cncc(C#CCCCc2ccccc2)c1 [Example 17, 5-(5-Phenyl-1-pentynyl)-3-(1-methyl-2-(S)-pyrrolidinylmethoxy)pyridine Dihydrochloride]	32	–	–	inhibition at 10 µM [1, 3]: 100%
CCCC(=O)C=Cc1cncc(OC[C@@H]2CCCN2C)c1 [Example 22, 5-(3-oxo-1-Hexenyl)-3-(1-methyl-2-(S)-pyrrolidinylmethoxy)pyridinine Dihydrochloride]	44	–	–	–
Cl.Cl.Clc1ncc(OC[C@@H]2CCCN2)cc1Br [Example 23, 5-Bromo-6-chloro-3-(2-(S)-pyrrolidinylmethoxy)pyridine Dihydrochloride]	27	264 to 268 °C	–	–
CN1CCC[C@H]1COc1cnc(Cl)c(Br)c1.Cl.Cl [Example 24, 5-Bromo-6-chloro-3-(1-methyl-2-(S)-pyrrolidinylmethoxy)pyridine Dihydrochloride]	17	189 to 191 °C	–	–
CN1CCC[C@H]1COc1cncc(-c2cncnc2)c1.Cl.Cl [Example 25, 5-(5-Pyrimidinyl)-3-(1-methyl-2-(S)-pyrrolidinylmethoxy)pyridine Dihydrochloride]	–	205 to 220 °C	4.5	–
CN1CCC[C@H]1COc1cnc(Cl)c(-c2ccccc2)c1.Cl.Cl [Example 26, 5-Phenyl-6-chloro-3-(1-methyl-2-(S)-pyrrolidinylmethoxy)pyridine Dihydrochloride]	47	180 to 183 °C	–	–
CN1CCC[C@H]1COc1cncc(C#CCCCCO)c1 [Example 28, 5-(6-Hydroxy-1-hexynyl)-3-(1-methyl-2-(S)-pyrrolidipylmethoxy)pyridine Dihydrochloride]	20	–	–	–
CN1CCC[C@H]1COc1cncc(C=CC=CC(C)(C)C)c1.Cl.Cl [Example 30, 5-(5,5-Dimethyl-1,3-hexadienyl)-3-(1-methyl-2-(S)-pyrrolidinylmethoxy)pyridine Dihydrochloride]	21	148 to 150 °C	–	inhibition at 10 µM [1, 3]: 90%
Cl.Cl.Clc1ncc(OC[C@@H]2CCCN2)cc1C=Cc1ccncc1 [Example 33, 5-(2-(4-Pyridinyl)ethenyl)-6-chloro-3-(2-(S)-pyrrolidinylmethoxy)pyridine Dihydrochloride]	–	235 to 240 °C	47	–
CN1CCC[C@H]1COc1cncc(C#CC(C)(C)C)c1 [Example 47, 5-(3,3-Dimethylbutynyl)-3-(1-methyl-2-(S)-pyrrolidinylmethoxy)pyridine Dihydrochloride]	66	–	–	–
Cc1ccc(C#Cc2cncc(OC[C@@H]3CCCN3C)c2)cc1.Cl.Cl [Example 48, 5-(2-(4-Methylphenyl)ethynyl)-3-(1-methyl-2-(S)-pyrrolidinylmethoxy)pyridine Dihydrochloride]	40	197 to 199 °C	–	–
CCCCCCC#Cc1cncc(OC[C@@H]2CCCN2C)c1 [Example 49, 5-Octynyl-3-(1-methyl-2-(S)-pyrrolidinylmethoxy)pyridine Dihydrochloride]	33	–	–	–
Cl.Cl.c1ccc(-c2cncc(OC[C@@H]3CCCN3)c2)cc1 [Example 51, 5-Phenyl-3-(2-(S)-pyrrolidinylmethoxy)pyridine Dihydrochloride]	42	134 to 136 °C	–	–

SMILES	inhibition at 1 µM [1, 2] [%]	melting point	Emax [1, 4] [%]	further results
Cl.Cl.c1ccc(-c2cncc(OC[C@H]3CCCN3)c2)cc1 [Example 52, 5-Phenyl-3-(2-(R)-pyrrolidinylmethoxy)pyridine Dihydrochloride]	22	129 to 131 °C	–	inhibition at 10 µM [1, 3]: 88%
CN1CCC[C@@H]1COc1cncc(-c2ccccc2)c1.Cl.Cl [Example 53, 5-Phenyl-3-(1-methyl-2-(R)-pyrrolidinylmethoxy)pyridine Dihydrochloride]	35	89 to 90 °C	–	inhibition at 10 µM [1, 3]: 100%
Cl.Cl.c1ccc(-c2cncc(OC[C@@H]3CCN3)c2)cc1 [Example 56, 5-Phenyl-3-(2-(S)-azetidinylmethoxy)pyridine Dihydrochloride]	–	–	–	IMR-32 maximal response [1, 4]: 20%; % Inhibition @ 1 μM [1, 2]: 16%
CN1CC[C@H]1COc1cncc(-c2ccccc2)c1.Cl.Cl [Example 57, 5-Phenyl-3-(1-methyl-2-(S)-azetidinylmethoxy)pyridine Dihydrochloride]	21	120 to 122 °C	–	–
Clc1ncc(OC[C@@H]2CCN2)cc1-c1ccccc1 [Example 67, 5-Phenyl-6-chloro-3-(2-(S)-azetidinylmethoxy)pyridine Hidrochloride]	–	–	90	–
CN1CCC[C@@H]1COc1cnc(Cl)c(-c2ccccc2)c1 [Example 69, 5-Phenyl-6-chloro-3-(1-methyl-2-(R)-pyrrolidinylmethoxy)pyridine Dihydrochloride]	–	–	6	–
Clc1ncc(OC[C@H]2CCCN2)cc1C=Cc1ccncc1 [Example 81, 5-(2-(4-Pyridinyl)ethenyl)-6-chloro-3-(2-(R)-pyrrolidinylmethoxy)pyridine Dihydrochloride]	–	–	32	–
Cl.Cl.Clc1ncc(OC[C@@H]2CCCN2)cc1-c1ccccc1 [Example 84, 5-Phenyl-6-chloro-3-(2-(S)-pyrrolidinylmethoxy)pyridine Dihydrochloride]	–	75 to 80 °C	37	–
C(=C\c1cncc(OC[C@H]2CCCN2)c1)/c1ccncc1 [Example 86, 5-(2-(4-Pyridinyl)ethenyl)-3-(2-(R)-pyrroylidinylmethoxy)pyridine Trihydrochloride]	–	–	44	–
Cl.Cl.Cl.c1cc(CCc2cncc(OC[C@H]3CCCN3)c2)ccn1 [Example 87, 5-(2-(4-Pyridinyl)ethyl)-3-(2-(R)-pyrrolidinylmethoxy)pyridine Trihydrochloride]	–	178 to 180 °C	40	–
Clc1ncc(OC[C@@H]2CCN2)cc1C=Cc1ccncc1 [Example 89, 5-(2-(4-Pyridinyl)ethenyl)-6-chloro-3-(2-(S)-azetidnylmethoxy)pyridine Citric Acid Salt]	–	–	72	–
O=C(NCc1cc(OC[C@@H]2CCN2)cnc1Cl)c1ccccc1 [Example 92, 3-(2-(S)-Azetidinylmethoxy)-5-(N-benzoylamino)methyl-6-chloropyridine Hydrochloride]	–	–	25	–
c1csc(-c2cncc(OC[C@@H]3CCN3)c2)c1 [Example 154, 3-(2-(S)-Azetidinylmethoxy)-5-(2-thienyl)pyridine Dihydrochloride]	–	–	1.5	–
C=Cc1cc(OC[C@@H]2CCN2)cnc1Cl.Cl.Cl [Example 165, 3-(2-(S)-Azetidinylmethoxy)-6-chloro-5-ethenylpyridine Dihydrochloride]	–	121 °C (dec.)	127	–
C=CCc1cncc(OC[C@@H]2CCN2)c1 [Example 181, 5-Allyl-3-(2-(S)-azetidinylmethoxy)pyridine Hydrochloride]	–	–	82	–
C=CCc1cc(OC[C@@H]2CCCN2)cnc1Cl [Example 183, 5-Allyl-6-chloro-3-(2-(S)-pyrrolidinylmethoxy)pyridine Hydrochloride]	–	–	110	–
CC(=O)NCc1cc(OC[C@@H]2CCN2)cnc1Cl [Example 206, 5-Acetamidomethyl-3-(2-(S)-azetidinylmethoxy)-6-chloropyridine Dihydrochloride]	–	–	11	–
